The record followed here is ChEMBL document CHEMBL3045684, “Compatibility of traditional and novel acaricides with bumblebees (Bombus terrestris): a first laboratory assessment of toxicity and sublethal effects” (Pest Manag Sci, 2010).

Activity calls are given as the source filed them. The rule behind the calls is not given here.

By mortality is commonly meant the percentage killed.

Experiment [1] concerns Bombus terrestris. In words: Toxicity against worker Bombus terrestris (bumblebee) assessed as mortality at 500 mg a.i./l, po administered through pollen for 11 weeks measured everyday for 3 days followed by once a week for 11 weeks. The experiment is classed as functional, organism-based.
Experiment [2] has as its system Bombus terrestris. In words: Contact toxicity against worker Bombus terrestris (bumblebee) assessed as reduction in reproduction at 500 mg a.i./l applied on the dorsal thorax for 11 weeks measured once a week for 11 weeks relative to control. The class given is functional, organism-based.
In experiment [3] the test system is Bombus terrestris. In words: Toxicity against worker Bombus terrestris (bumblebee) assessed as reduction in reproduction at 500 mg a.i./l, po administered through pollen for 11 weeks measured once a week for 11 weeks. The experiment is classed as functional. Also noted: scale not given: the % may be the effect or the level left.
Experiment [4] concerns Bombus terrestris. In words: Toxicity against worker Bombus terrestris (bumblebee) assessed as reduction in reproduction at 500 mg a.i./l, po administered through sugar water for 11 weeks measured once a week for 11 weeks relative to control. The class given is functional, organism-based.
Experiment [5] has as its system Bombus terrestris. Kind of experiment: Toxicity against worker Bombus terrestris (bumblebee) assessed as mortality at 500 mg a.i./l, po administered through sugar water for 11 weeks measured everyday for 3 days followed by once a week for 11 weeks. The experiment is classed as functional.
In experiment [6] the test system is Bombus terrestris. Kind of experiment: Contact toxicity against worker Bombus terrestris (bumblebee) assessed as mortality at 500 mg a.i./l applied on the dorsal thorax for 11 weeks measured everyday for 3 days followed by once a week for 11 weeks. The class given is functional.
For experiment [7], the system named is Bombus terrestris. In words: Contact toxicity against worker Bombus terrestris (bumblebee) assessed as reduction in reproduction at 0.8 mg a.i./l applied on the dorsal thorax for 11 weeks measured once a week for 11 weeks relative to control. The experiment is classed as functional, organism-based.
The subject of experiment [8] is Bombus terrestris. Kind of experiment: Toxicity against worker Bombus terrestris (bumblebee) assessed as mortality at 0.8 mg a.i./l, po administered through sugar water for 11 weeks measured everyday for 3 days followed by once a week for 11 weeks. The experiment is classed as functional.
Experiment [9] has as its system Bombus terrestris. In words: Toxicity against worker Bombus terrestris (bumblebee) assessed as reduction in reproduction at 0.8 mg a.i./l, po administered through sugar water for 11 weeks measured once a week for 11 weeks relative to control. The experiment is classed as functional, organism-based.
Experiment [10] relates to Bombus terrestris. Kind of experiment: Contact toxicity against worker Bombus terrestris (bumblebee) assessed as mortality at 0.8 mg a.i./l applied on the dorsal thorax for 11 weeks measured everyday for 3 days followed by once a week for 11 weeks. The class given is functional.
For experiment [11], the system named is Bombus terrestris. Kind of experiment: Toxicity against worker Bombus terrestris (bumblebee) assessed as mortality at 0.8 mg a.i./l, po administered through pollen for 11 weeks measured everyday for 3 days followed by once a week for 11 weeks. The experiment is classed as functional, organism-based.
The test system of experiment [12] is Bombus terrestris. Kind of experiment: Toxicity against worker Bombus terrestris (bumblebee) assessed as reduction in reproduction at 0.8 mg a.i./l, po administered through pollen for 11 weeks measured once a week for 11 weeks. The experiment is classed as functional, organism-based.
The subject of experiment [13] is Bombus terrestris. In words: Toxicity against worker Bombus terrestris (bumblebee) assessed as mortality at 96 mg a.i./l, po administered through sugar water for 11 weeks measured everyday for 3 days followed by once a week for 11 weeks. The class given is functional.
Experiment [14] concerns Bombus terrestris. In words: Toxicity against worker Bombus terrestris (bumblebee) assessed as reduction in reproduction at 96 mg a.i./l, po administered through sugar water for 11 weeks measured once a week for 11 weeks relative to control. The experiment is classed as functional, organism-based.
In experiment [15] the test system is Bombus terrestris. Kind of experiment: Toxicity against worker Bombus terrestris (bumblebee) assessed as mortality at 96 mg a.i./l, po administered through pollen for 11 weeks measured everyday for 3 days followed by once a week for 11 weeks. The class given is functional, organism-based.
Experiment [16] relates to Bombus terrestris. In words: Toxicity against worker Bombus terrestris (bumblebee) assessed as reduction in reproduction at 96 mg a.i./l, po administered through pollen for 11 weeks measured once a week for 11 weeks. The class given is functional, organism-based.
The subject of experiment [17] is Bombus terrestris. Kind of experiment: Contact toxicity against worker Bombus terrestris (bumblebee) assessed as mortality at 96 mg a.i./l applied on the dorsal thorax for 11 weeks measured everyday for 3 days followed by once a week for 11 weeks. The class given is functional.
The test system of experiment [18] is Bombus terrestris. In words: Contact toxicity against worker Bombus terrestris (bumblebee) assessed as reduction in reproduction at 96 mg a.i./l applied on the dorsal thorax for 11 weeks measured once a week for 11 weeks relative to control. The class given is functional, organism-based.
For experiment [19], the system named is Bombus terrestris. In words: Toxicity against worker Bombus terrestris (bumblebee) assessed as mortality at 100 mg a.i./l, po administered through pollen for 11 weeks measured everyday for 3 days followed by once a week for 11 weeks. The experiment is classed as functional.
The subject of experiment [20] is Bombus terrestris. In words: Toxicity against worker Bombus terrestris (bumblebee) assessed as reduction in reproduction at 100 mg a.i./l, po administered through pollen for 11 weeks measured once a week for 11 weeks. The experiment is classed as functional. Details: scale not given: the % may be the effect or the level left.
For experiment [21], the system named is Bombus terrestris. In words: Toxicity against worker Bombus terrestris (bumblebee) assessed as mortality at 10 mg a.i./l, po administered through sugar water for 11 weeks measured everyday for 3 days followed by once a week for 11 weeks. The class given is functional.
The test system of experiment [22] is Bombus terrestris. Kind of experiment: Toxicity against worker Bombus terrestris (bumblebee) assessed as mortality at 200 mg a.i./l, po administered through sugar water for 11 weeks measured everyday for 3 days followed by once a week for 11 weeks. The class given is functional.
Experiment [23] concerns Bombus terrestris. Kind of experiment: Toxicity against worker Bombus terrestris (bumblebee) assessed as reduction in reproduction at 200 mg a.i./l, po administered through sugar water for 11 weeks measured once a week for 11 weeks relative to control. The class given is functional, organism-based.
The test system of experiment [24] is Bombus terrestris. Kind of experiment: Contact toxicity against worker Bombus terrestris (bumblebee) assessed as mortality at 10 mg a.i./l applied on the dorsal thorax for 11 weeks measured everyday for 3 days followed by once a week for 11 weeks. The class given is functional.
Experiment [25] deals with Bombus terrestris. In words: Toxicity against worker Bombus terrestris (bumblebee) assessed as reduction in reproduction at 10 mg a.i./l, po administered through pollen for 11 weeks measured once a week for 11 weeks. Details: scale not given: the % may be the effect or the level left. The class given is functional.
Experiment [26] deals with Bombus terrestris. In words: Contact toxicity against worker Bombus terrestris (bumblebee) assessed as mortality at 100 mg a.i./l applied on the dorsal thorax for 11 weeks measured everyday for 3 days followed by once a week for 11 weeks. The class given is functional.
Experiment [27] has as its system Bombus terrestris. Kind of experiment: Toxicity against worker Bombus terrestris (bumblebee) assessed as reduction in reproduction at 10 mg a.i./l, po administered through sugar water for 11 weeks measured once a week for 11 weeks relative to control. The class given is functional, organism-based.
Experiment [28] relates to Bombus terrestris. Kind of experiment: Toxicity against worker Bombus terrestris (bumblebee) assessed as reduction in reproduction at 200 mg a.i./l, po administered through pollen for 11 weeks measured once a week for 11 weeks. Also noted: scale not given: the % may be the effect or the level left. The class given is functional.
The test system of experiment [29] is Bombus terrestris. In words: Contact toxicity against worker Bombus terrestris (bumblebee) assessed as reduction in reproduction at 100 mg a.i./l applied on the dorsal thorax for 11 weeks measured once a week for 11 weeks relative to control. The class given is functional, organism-based.
Experiment [30] relates to Bombus terrestris. Kind of experiment: Toxicity against worker Bombus terrestris (bumblebee) assessed as reduction in reproduction at 100 mg a.i./l, po administered through sugar water for 11 weeks measured once a week for 11 weeks relative to control. The class given is functional, organism-based.
Experiment [31] deals with Bombus terrestris. In words: Toxicity against worker Bombus terrestris (bumblebee) assessed as mortality at 200 mg a.i./l, po administered through pollen for 11 weeks measured everyday for 3 days followed by once a week for 11 weeks. The experiment is classed as functional.
In experiment [32] the test system is Bombus terrestris. Kind of experiment: Toxicity against worker Bombus terrestris (bumblebee) assessed as mortality at 10 mg a.i./l, po administered through pollen for 11 weeks measured everyday for 3 days followed by once a week for 11 weeks. The class given is functional, organism-based.
Experiment [33] has as its system Bombus terrestris. Kind of experiment: Contact toxicity against worker Bombus terrestris (bumblebee) assessed as reduction in reproduction at 200 mg a.i./l applied on the dorsal thorax for 11 weeks measured once a week for 11 weeks relative to control. The experiment is classed as functional, organism-based.
In experiment [34] the test system is Bombus terrestris. In words: Contact toxicity against worker Bombus terrestris (bumblebee) assessed as reduction in reproduction at 10 mg a.i./l applied on the dorsal thorax for 11 weeks measured once a week for 11 weeks relative to control. The experiment is classed as functional, organism-based.
Experiment [35] deals with Bombus terrestris. Kind of experiment: Contact toxicity against worker Bombus terrestris (bumblebee) assessed as mortality at 200 mg a.i./l applied on the dorsal thorax for 11 weeks measured everyday for 3 days followed by once a week for 11 weeks. The class given is functional.
In experiment [36] the test system is Bombus terrestris. In words: Toxicity against worker Bombus terrestris (bumblebee) assessed as mortality at 100 mg a.i./l, po administered through sugar water for 11 weeks measured everyday for 3 days followed by once a week for 11 weeks. The experiment is classed as functional.

With `ClC1=C(Cl)C(Cl)(C2(Cl)C(Cl)=C(Cl)C(Cl)=C2Cl)C(Cl)=C1Cl` [DIENOCHLOR], the outcome in the experiment with Bombus terrestris [1] and in the experiment on Bombus terrestris [2] was inactive. Besides, in the experiment with Bombus terrestris [3], the Activity was 50%. Moreover, in the experiment with Bombus terrestris [4], the result was Active. The mortality at 500 µg/mL in the experiment on Bombus terrestris [5] was 85%; in the experiment on Bombus terrestris [6], below 25%.

In the case of `Cc1cc(C)c(C2=C(OC(=O)CC(C)(C)C)C3(CCCC3)OC2=O)c(C)c1` [SPIROMESIFEN], the result with Bombus terrestris [7] and with Bombus terrestris [11] was inactive. The mortality at 0.8 µg/mL with Bombus terrestris [8] and with Bombus terrestris [10] was below 25% in each case. In addition, the result in the experiment with Bombus terrestris [9] and in the experiment with Bombus terrestris [12] was Active.

`CCC(C)(C)C(=O)OC1=C(c2ccc(Cl)cc2Cl)C(=O)OC12CCCCC2` [SPIRODICLOFEN]: the mortality at 96 µg/mL in the experiment on Bombus terrestris [13] and in the experiment on Bombus terrestris [17] was below 25% in each case. For the same compound, the outcome in the experiment on Bombus terrestris [14] and in the experiment on Bombus terrestris [16] was Active. Also, the result in the experiment on Bombus terrestris [15] and in the experiment on Bombus terrestris [18] was inactive.

On to `CCc1nn(C)c(C(=O)NCc2ccc(C(C)(C)C)cc2)c1Cl` [TEBUFENPYRAD], for which the mortality at 100 µg/mL is 90% in the experiment with Bombus terrestris [19], below 25% in the experiment with Bombus terrestris [26] and 50% in the experiment on Bombus terrestris [36]. For the same compound, the Activity in the experiment on Bombus terrestris [20], in the experiment on Bombus terrestris [25] and with Bombus terrestris [28] was 50% throughout. For the same compound, the mortality at 10 µg/mL is 50% in the experiment on Bombus terrestris [21] and below 25% in the experiment with Bombus terrestris [24]. Also, the figures for the mortality at 200 µg/mL in the experiment with Bombus terrestris [22], with Bombus terrestris [31] and in the experiment with Bombus terrestris [35] were 50%, 90% and below 25%, respectively. Besides, the outcome in the experiment with Bombus terrestris [23], in the experiment on Bombus terrestris [27] and in the experiment on Bombus terrestris [30] was Active. The outcome with Bombus terrestris [29], in the experiment with Bombus terrestris [32], in the experiment with Bombus terrestris [33] and in the experiment on Bombus terrestris [34] was inactive.

With `CC(C)OC(=O)C(O)(c1ccc(Br)cc1)c1ccc(Br)cc1` [BROMOPROPYLATE], the result in the experiment on Bombus terrestris [1] and with Bombus terrestris [2] was inactive. In addition, the Activity in the experiment with Bombus terrestris [3] is given as 50%. The result with Bombus terrestris [4] was Active. Also, the mortality at 500 µg/mL with Bombus terrestris [5] and in the experiment with Bombus terrestris [6] was below 25% throughout.
